US12559492B2, “BRAF degraders” (C4 Therapeutics, Inc., priority 2020, dated 2026)

Molecular target: BRAF^V600E protein (Homo sapiens, UniProt P15056, V600E)
Experiment: HiBiT cellular BRAF V600E degradation assay
Format: cell-based
Conditions: 24 h incubation; for DC50: A375.10 cells (HiBiT tag knocked in at N-terminal of BRAF V600E), concentration at which 50% of total cellular BRAF V600E is degraded; for Emax: A375.10 cells, Emax = amount of residual protein remaining in the cell after compound treatment, read-out: HiBit 24 h Emax

Chain of BRAF^V600E protein (P15056 whole entry V600E): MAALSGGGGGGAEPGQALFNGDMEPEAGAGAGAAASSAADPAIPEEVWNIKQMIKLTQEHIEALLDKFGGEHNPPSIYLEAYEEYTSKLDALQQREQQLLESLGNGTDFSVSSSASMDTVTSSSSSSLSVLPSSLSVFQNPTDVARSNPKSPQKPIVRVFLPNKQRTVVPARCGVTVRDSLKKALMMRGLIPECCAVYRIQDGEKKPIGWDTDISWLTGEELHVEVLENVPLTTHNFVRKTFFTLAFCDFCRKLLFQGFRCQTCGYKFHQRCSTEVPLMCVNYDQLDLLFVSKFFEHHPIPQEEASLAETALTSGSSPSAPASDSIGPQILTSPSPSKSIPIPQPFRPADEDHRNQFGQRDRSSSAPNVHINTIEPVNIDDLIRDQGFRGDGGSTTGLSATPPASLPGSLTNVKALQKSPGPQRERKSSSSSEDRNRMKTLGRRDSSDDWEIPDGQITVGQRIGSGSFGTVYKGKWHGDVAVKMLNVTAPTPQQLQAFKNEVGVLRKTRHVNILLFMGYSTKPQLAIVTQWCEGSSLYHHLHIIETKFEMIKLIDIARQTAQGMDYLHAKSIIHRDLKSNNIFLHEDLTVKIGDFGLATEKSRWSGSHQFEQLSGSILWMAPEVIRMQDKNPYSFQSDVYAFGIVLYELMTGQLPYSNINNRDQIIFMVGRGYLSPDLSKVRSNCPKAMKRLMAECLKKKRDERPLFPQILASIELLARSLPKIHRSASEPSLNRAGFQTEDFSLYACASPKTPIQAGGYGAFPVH

## CCN(C)S(=O)(=O)Nc1ccc(F)c(C(=O)c2c[nH]c3ncc(C#CC4CCN(C(=O)CN5CCC(c6ccc(NC7CCC(=O)NC7=O)cc6)CC5)CC4)cc23)c1F (centres unmarked) [Example A43, 5-[2-[1-[2-[4-[4-[(2,6-Dioxopiperidin-3-yl)amino]phenyl]piperidin-1-yl]acetyl]piperidin-4-yl]ethynyl]-3-[3-[[ethyl(methyl)sulfamoyl]amino]-2,6-difluorobenzoyl]-1H-pyrrolo[2,3-b]pyridine]
  DC50: 57 nM
  Emax: 32%

## CCN(C)S(=O)(=O)Nc1ccc(F)c(C(=O)c2c[nH]c3ncc(-c4ccc(C5CCN(C(=O)CN6CCC(c7ccc(NC8CCC(=O)NC8=O)cc7)CC6)CC5)cc4)cc23)c1F (centres unmarked) [Example A44, 5-[4-[1-[2-[4-[4-[(2,6-Dioxopiperidin-3-yl)amino]phenyl]piperidin-1-yl]acetyl]piperidin-4-yl]phenyl]-3-[3-[[ethyl(methyl)sulfamoyl]amino]-2,6-difluorobenzoyl]-1H-pyrrolo[2,3-b]pyridine]
  DC50: 10.4 nM
  Emax: 9.52%

## CCN(C)S(=O)(=O)Nc1ccc(F)c(C(=O)c2c[nH]c3ncc(-c4ccc(N5CCN(C(=O)CN6CCC(c7ccc(OC8CCC(=O)NC8=O)cn7)CC6)CC5)nc4)cc23)c1F (centres unmarked) [Example A45, 5-[6-[4-[2-[4-[5-(2,6-Dioxopiperidin-3-yl)oxypyridin-2-yl]piperidin-1-yl]acetyl]piperazin-1-yl]pyridin-3-yl]-3-[3-[[ethyl(methyl)sulfamoyl]amino]-2,6-difluorobenzoyl]-1H-pyrrolo[2,3-b]pyridine]
  DC50: 65 nM
  Emax: 21%

## CCN(C)S(=O)(=O)Nc1ccc(F)c(C(=O)c2c[nH]c3ncc(-c4cnc(C5CCN(C(=O)CN6CCC(c7ccc(NC8CCC(=O)NC8=O)cc7)CC6)CC5)nc4)cc23)c1F (centres unmarked) [Example A46, 5-[2-[1-[2-[4-[4-[(2,6-Dioxopiperidin-3-yl)amino]phenyl]piperidin-1-yl]acetyl]piperidin-4-yl]pyrimidin-5-yl]-3-[3-[[ethyl(methyl)sulfamoyl]amino]-2,6-difluorobenzoyl]-1H-pyrrolo[2,3-b]pyridine]
  DC50: 7.44 nM
  Emax: 10.8%

## CCN(C)S(=O)(=O)Nc1ccc(F)c(C(=O)c2c[nH]c3ncc(-c4ccc(N5CCN(C(=O)CN6CCC(c7ccc(NC89CC(C8)C(=O)NC9=O)cc7)CC6)CC5)nc4)cc23)c1F [Example A47, 5-[6-[4-[2-[4-[4-[(2,4-Dioxo-3-azabicyclo[3.1.1]heptan-1-yl)amino]phenyl]piperidin-1-yl]acetyl]piperazin-1-yl]pyridin-3-yl]-3-[3-[[ethyl(methyl)sulfamoyl]amino]-2,6-difluorobenzoyl]-1H-pyrrolo[2,3-b]pyridine]
  DC50: 3.86 nM
  Emax: 10.7%

## O=C1CCC(Nc2ccc(C3CCN(CC(=O)N4CCN(c5ccc(-c6cnc7[nH]cc(C(=O)c8c(F)ccc(NS(=O)(=O)N9CCCC9)c8F)c7c6)cc5)CC4)CC3)cc2)C(=O)N1 (centres unmarked) [Example A48, N-[3-[5-[4-[4-[2-[4-[4-[(2,6-Dioxopiperidin-3-yl)amino]phenyl]piperidin-1-yl]acetyl]piperazin-1-yl]phenyl]-1H-pyrrolo[2,3-b]pyridine-3-carbonyl]-2,4-difluorophenyl]pyrrolidine-1-sulfonamide]
  DC50: 5 nM
  Emax: 12%

## CCN(C)S(=O)(=O)Nc1ccc(F)c(C(=O)c2c[nH]c3ncc(-c4ccc(C5CCN(C(=O)CN6CCC(c7ccc(NC8CCC(=O)NC8=O)cc7)CC6)CC5)nc4)cc23)c1F (centres unmarked) [Example A49, 5-[6-[1-[2-[4-[4-[(2,6-Dioxopiperidin-3-yl)amino]phenyl]piperidin-1-yl]acetyl]piperidin-4-yl]pyridin-3-yl]-3-[3-[[ethyl(methyl)sulfamoyl]amino]-2,6-difluorobenzoyl]-1H-pyrrolo[2,3-b]pyridine]
  DC50: 17 nM
  Emax: 11%

## O=C1CCC(Oc2ccc(C3CCN(CC(=O)N4CCN(c5ccc(-c6cnc7[nH]cc(C(=O)c8c(F)ccc(NS(=O)(=O)N9CCCC9)c8F)c7c6)cc5)CC4)CC3)cc2)C(=O)N1 (centres unmarked) [Example A50, N-[3-[5-[4-[4-[2-[4-[4-(2,6-Dioxopiperidin-3-yl)oxyphenyl]piperidin-1-yl]acetyl]piperazin-1-yl]phenyl]-1H-pyrrolo[2,3-b]pyridine-3-carbonyl]-2,4-difluorophenyl]pyrrolidine-1-sulfonamide]
  DC50: 15 nM
  Emax: 12%

## O=C1CCC(Nc2ccc(N3CCN(CC(=O)N4CCN(c5ccc(-c6cnc7[nH]cc(C(=O)c8c(F)ccc(NS(=O)(=O)N9CCCC9)c8F)c7c6)cc5)CC4)CC3)cc2)C(=O)N1 (centres unmarked) [Example A51, N-[3-[5-[4-[4-[2-[4-[4-[(2,6-Dioxopiperidin-3-yl)amino]phenyl]piperazin-1-yl]acetyl]piperazin-1-yl]phenyl]-1H-pyrrolo[2,3-b]pyridine-3-carbonyl]-2,4-difluorophenyl]pyrrolidine-1-sulfonamide]
  DC50: 4 nM
  Emax: 14%

## O=C1CCC(Nc2ccc(C3CCN(CC(=O)N4CCN(c5ccc(-c6cnc7[nH]cc(C(=O)c8c(F)ccc(NS(=O)(=O)C9CCCC9)c8F)c7c6)cc5)CC4)CC3)cc2)C(=O)N1 (centres unmarked) [Example A52, N-[3-[5-[4-[4-[2-[4-[4-[(2,6-Dioxopiperidin-3-yl)amino]phenyl]piperidin-1-yl]acetyl]piperazin-1-yl]phenyl]-1H-pyrrolo[2,3-b]pyridine-3-carbonyl]-2,4-difluorophenyl]cyclopentanesulfonamide]
  DC50: 10 nM
  Emax: 12%

## O=C1CCC(Nc2ccc(C3CCN(C(=O)NC4CCN(Cc5ccc(-c6cnc7[nH]cc(C(=O)c8c(F)ccc(NS(=O)(=O)N9CCCC9)c8F)c7c6)cc5)CC4)CC3)cc2)C(=O)N1 (centres unmarked) [Example A53, N-[1-[[4-[3-[2,6-Difluoro-3-(pyrrolidin-1-ylsulfonylamino)benzoyl]-1H-pyrrolo[2,3-b]pyridin-5-yl]phenyl]methyl]piperidin-4-yl]-4-[4-[(2,6-dioxopiperidin-3-yl)amino]phenyl]piperidine-1-carboxamide;formic acid]
  DC50: 27 nM
  Emax: 22%

## CCN(C)S(=O)(=O)Nc1ccc(F)c(C(=O)c2c[nH]c3ncc(-c4cnc(N5CCN(C(=O)CN6CCC(c7ccc(NC8CCC(=O)NC8=O)cc7F)CC6)CC5)nc4)cc23)c1F (centres unmarked) [Example A54, 5-[2-[4-[2-[4-[4-[(2,6-Dioxopiperidin-3-yl)amino]-2-fluorophenyl]piperidin-1-yl]acetyl]piperazin-1-yl]pyrimidin-5-yl]-3-[3-[[ethyl(methyl)sulfamoyl]amino]-2,6-difluorobenzoyl]-1H-pyrrolo[2,3-b]pyridine]
  DC50: 3.94 nM
  Emax: 9.71%

## CCN(C)S(=O)(=O)Nc1ccc(F)c(C(=O)c2c[nH]c3ncc(-c4cnc(N5CCN(C(=O)C(C)(C)N6CCC(c7ccc(NC8CCC(=O)NC8=O)cc7)CC6)CC5)nc4)cc23)c1F (centres unmarked) [Example A55, 5-[2-[4-[2-[4-[4-[(2,6-Dioxopiperidin-3-yl)amino]phenyl]piperidin-1-yl]-2-methylpropanoyl]piperazin-1-yl]pyrimidin-5-yl]-3-[3-[[ethyl(methyl)sulfamoyl]amino]-2,6-difluorobenzoyl]-1H-pyrrolo[2,3-b]pyridine]
  DC50: 97 nM
  Emax: 26%
